Laboratory results from patent US20260116910A1, “POLYCYCLIC COMPOUNDS AND METHODS THEREOF” (HEPAITECH (BEIJING) BIOPHARMA TECHNOLOGY CO., LTD., priority 2021, published 2026).
pEC50: −log10 of the molar value.

Assays:
MRGPRX4 = MRGPRX4 (Homo sapiens, UniProt Q96LA9); assay: MRGPRX4 activation, Fluo-8 Ca2+ FLIPR assay in HEK293T cells stably expressing MRGPRX4; format: cell-based; conditions: for EC50: MRGPRX4 activation, Ca2+ fluorescence, no activation in tested range reported as III, read-out: Activity (EC50 μM)
In short: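 Response measured as dF/F0: 30 s baseline, then 150 s after compound addition on FLIPR Tetra, in HHBS after 40-60 min room-temperature loading with 2 μM Fluo-8 AM.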

human FXR (NR1H4) = target: T1, human FXR (NR1H4) (Homo sapiens, UniProt Q96RI1); assay: Human FXR (NR1H4) agonist assessment, FXRE-NanoLuc reporter in HEK293T cells; format: cell-based; conditions: FXR activation, HEK293T FXRE-NanoLuc reporter, 24 hr; for pEC50: read-out: EC50
T1 sequence (Q96RI1 1-476 isoform Q96RI1-1): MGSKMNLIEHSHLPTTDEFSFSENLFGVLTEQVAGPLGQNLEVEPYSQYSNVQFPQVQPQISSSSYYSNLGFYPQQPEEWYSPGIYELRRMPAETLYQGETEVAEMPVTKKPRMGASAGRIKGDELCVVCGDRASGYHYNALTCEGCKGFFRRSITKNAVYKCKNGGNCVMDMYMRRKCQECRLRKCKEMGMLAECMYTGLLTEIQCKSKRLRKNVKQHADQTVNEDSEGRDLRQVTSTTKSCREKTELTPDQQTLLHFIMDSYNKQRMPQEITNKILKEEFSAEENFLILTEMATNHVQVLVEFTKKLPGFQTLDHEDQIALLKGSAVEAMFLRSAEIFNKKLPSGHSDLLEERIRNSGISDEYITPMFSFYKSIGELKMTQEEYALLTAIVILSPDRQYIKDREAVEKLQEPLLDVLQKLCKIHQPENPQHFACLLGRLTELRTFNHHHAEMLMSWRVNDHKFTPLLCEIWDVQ
In short: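 Read-out was NanoLuc luminescence in culture medium, measured 5 min after adding coelenterazine. Cells were HEK293T stably carrying human FXR and an FXRE reporter, exposed to compound for 24 hr at 37 °C. Vehicle was 0.01% DMSO. EC50 was obtained from sigmoid fits of gradient dilutions.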

MRGPRX4, sequence (Q96LA9 whole entry): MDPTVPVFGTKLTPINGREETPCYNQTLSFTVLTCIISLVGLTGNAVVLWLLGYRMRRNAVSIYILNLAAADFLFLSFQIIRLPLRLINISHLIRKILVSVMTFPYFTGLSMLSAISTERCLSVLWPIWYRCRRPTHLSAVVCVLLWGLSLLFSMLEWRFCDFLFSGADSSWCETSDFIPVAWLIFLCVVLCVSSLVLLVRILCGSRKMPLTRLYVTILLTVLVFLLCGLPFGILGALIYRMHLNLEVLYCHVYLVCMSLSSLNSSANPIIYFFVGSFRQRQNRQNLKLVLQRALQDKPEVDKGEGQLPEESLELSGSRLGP

SMILES	MRGPRX4 activation, fluorescence change (dF/F0), Average (MRGPRX4; Conc. (Log[M]) −4)	MRGPRX4 activation, fluorescence change (dF/F0), Average (MRGPRX4; Conc. (Log[M]) −4.5)	MRGPRX4 activation, fluorescence change (dF/F0), Average (MRGPRX4; Conc. (Log[M]) −5)	MRGPRX4 activation, fluorescence change (dF/F0), Average (MRGPRX4; Conc. (Log[M]) −5.5)	MRGPRX4 activation, fluorescence change (dF/F0), Average (MRGPRX4; Conc. (Log[M]) −6)	MRGPRX4 activation, fluorescence change (dF/F0), Average (MRGPRX4; Conc. (Log[M]) −7)	MRGPRX4 activation, fluorescence change (dF/F0), Average (MRGPRX4; Conc. (Log[M]) −8)	MRGPRX4 activation, fluorescence change (dF/F0), Average (MRGPRX4; Conc. (Log[M]) −9)	EC50 (MRGPRX4) [µM]	Efficacy (maximum measured induction of NanoLuc, normalized to CDCA set as 100%) (human FXR (NR1H4))	pEC50 (human FXR (NR1H4))
CC[C@H]1[C@@H](OC(=O)c2cccc(I)c2)[C@@H]2[C@H](CC[C@]3(C)C([C@H](C)CCC(=O)OC)=CC[C@@H]23)[C@@]2(C)CCCC[C@@H]12 [3-1]	0.008	0.004	−0.027	−0.004	−0.017	0.005	0.001	−0.001	> 100	C (100%<efficacy <=300%)	5.00 to 6.00
CC[C@H]1[C@@H](OC(=O)c2cccc(I)c2)[C@@H]2[C@H](CC[C@]3(C)C([C@H](C)CCC(=O)OC)=CC(=O)[C@@H]23)[C@@]2(C)CCCC[C@@H]12 [3-2]	0.130	0.023	−0.003	−0.034	0.008	−0.014	−0.016	−0.035	> 100	C (100%<efficacy <=300%)	< 5.00
CC[C@H]1[C@@H](OC(=O)c2cccc(I)c2)[C@H]2[C@@H]3[C@@H](O)C=C([C@H](C)CCC(=O)OC)[C@@]3(C)CC[C@@H]2[C@@]2(C)CCCC[C@@H]12 [3-3]	0.041	0.052	−0.045	−0.013	−0.015	−0.015	−0.031	−0.014	> 100	C (100%<efficacy <=300%)	< 5.00
CC[C@H]1[C@@H](O)[C@@H]2[C@H](CC[C@]3(C)[C@@H]([C@H](C)CCC(=O)NS(=O)(=O)C(C)(C)C)CC[C@@H]23)[C@@]2(C)CCCC[C@@H]12 [4-1]	0.057	0.035	−0.037	−0.013	0.002	0.009	0.004	0.005	> 100	B (300%<efficacy <=400%)	> 6.00
CC[C@H]1[C@@H](O)[C@@H]2[C@H](CC[C@]3(C)[C@@H]([C@H](C)CCC(=O)NS(=O)(=O)CC)CC[C@@H]23)[C@@]2(C)CCCC[C@@H]12 [4-2]	0.113	−0.013	−0.006	0.015	−0.006	0.009	0.009	0.002	> 100	B (300%<efficacy <=400%)	> 6.00
CC[C@H]1[C@@H](O)[C@@H]2[C@H](CC[C@]3(C)[C@@H]([C@H](C)CC(=O)NS(=O)(=O)C(C)(C)C)CC[C@@H]23)[C@@]2(C)CCCC[C@@H]12 [4-3]	–	–	–	–	–	–	–	–	> 100	B (300%<efficacy <=400%)	5.00 to 6.00
CC[C@H]1[C@@H](O)[C@@H]2[C@H](CC[C@]3(C)[C@@H]([C@H](C)CCNC(=O)NS(=O)(=O)c4ccc(C(C)(C)C)cc4)CC[C@@H]23)[C@@]2(C)CCCC[C@@H]12 [5-1]	–	–	–	–	–	–	–	–	> 100	B (300%<efficacy <=400%)	> 6.00
